“Also recorded” adds a separate entry of the source.
Key:
MV-4-11 cells = assay: CellTiter-Glo cell viability, MV-4-11 cells; assay type: cell-based
Protocol: All cell lines were purchased from ATCC or DSMZ and grown at 37° C. with 5% C02. Human HeLa cells were cultured in complete growth medium (Dulbecco's modified Eagle's medium (DMEM) supplemented with 10% FBS); MCF7 cells were cultured in complete growth medium (Dulbecco's modified Eagle's medium (DMEM) supplemented with 10% FBS and 0.01 mg/ml human recombinant insulin (Sigma Aldrich); Namalwa and MOLM-13 cells were cultured in complete growth medium (RPMI 1640 medium supplemented with 10% FBS); MV-4-11 were cultured in complete growth medium (Iscove's Modified Dulbecco's medium, supplemented with 10% FBS); HCT116 cells were cultured in complete growth medium (McCoy's 5a Medium supplemented with 10% FBS). For cellular degradation of BRD4 studies, cells were seeded in a 12-well plate at 70-80% confluency, allowed to attach overnight, and incubated with the indicated compounds for the indicated time. When indicated, a 15-minute pretreatment with 10 μM pomalidomide, 10 μM VHL298, 10 μM Nutlin3a, 1 μM MG-132 or 1 μM Carfilzomib was performed before the addition of CURE-PROs. For washout studies, after CURE-PRO treatment, media was aspirated and incubated with complete medium for the indicated time before lysis.
CellTiter-Glo® 2.0 Cell Viability Assay (Promega) was carried out following the manufacturer's recommendations. Cells were seeded at a density of 1000 cells/well in a white 96 well plates (Corning, #3917) in a total volume of 100 μl with respective monomers, combinations of BRD ligands together with E3 ligase ligands or vehicle control treatment. After a 72 h incubation, 100 ul of the CellTiter-Glo® substrate was added per well and luminescence was read on a Spectramax M5 (Molecular Devices). Dose-response curves were generated using Graphpad Prism software.
MV-4-11 cells (5×104) were treated for 24 hours with the sample compounds solubilized in DMSO. The compounds were added at 1 nM-100 μM each. Cellular viability was determined using the CellTiter-Glo® Luminescent Cell Viability Assay (Promega) described above. FIGS. 19-22 depict the CURE-PRO-mediated loss of cellular viability for BRD monomers (JQ1 derivatives comprising of catechol linkers), and CRBN ligand, 8049 (pomalidomide derivatives comprising boronic acid linkers) combined in a 1:1 ratio.
MV-4-11 cells (1×104) were treated for 72 hours with the compounds solubilized in DMSO. Compounds were added at 10 nM-100 μM each. Cellular viability was determined using the CellTiter-Glo® Luminescent Cell Viability Assay (Promega) described above. FIGS. 47-54 depict the CURE-PRO-mediated loss of cellular viability for BRD monomers (JQ1 derivatives comprising of boronic acid linkers), and CRBN ligands, 8046, 8047, and 8066 (pomalidomide derivatives comprising diol linkers) combined in a 1:1 ratio.

BRD4 = BRD4 (Homo sapiens, UniProt O60885); assay: Summary of E3 ligase directed degradation of BRD4, estimated from Western Blot or WES (Tables 1-6); assay type: cell-based; design: endogenous in cells; host or cells: HeLa, MCF7 or HCT116; conditions: for Degradation of BRD4, combination with CRBN ligand [drawing 422]: CRBN ligand drawn as drawing 422 (by the text apparently 8066); for Degradation of BRD4, combination with CRBN ligand [drawing 397]: aromatic 1,2-diol- or hindered cis-1,2-diol-containing CRBN ligand drawn as drawing 397 (by the text apparently 8046); for Degradation of BRD4, combination with MDM2 ligand [drawing 431]: aromatic 1,2-diol-containing MDM2 ligand drawn as drawing 431 (by the text apparently 8314); for Degradation of BRD4, combination with VHL ligand [drawing 442]: Table 3, aromatic 1,2-diol-containing VHL ligand drawn as drawing 442 (by the text apparently 8305)
Protocol: HeLa, MCF7, or HCT116 cells (2.5-3×10^6) were treated for 24 hours with the indicated compounds solubilized in DMSO. The cells were washed in ice-cold PBS and were then lysed in RIPA lysis buffer (150 mM NaCl, 5 mM EDTA, 1% NP-40, 0.5% sodium deoxycholate, 0.1% SDS, 50 mM Tris, pH 8.0) with Roche protease inhibitor complete cocktail and phosphatase inhibitors (10 mM sodium fluoride, 10 mM sodium pyrophosphate, 1 mM sodium orthovanadate and 20 mM β-glycerophosphate). The total protein concentrations were determined by Bradford Protein Assay and 10-20 μg of protein was loaded onto 4-15% Tris-Glycine gradient gels (Biorad). After standard gel electrophoresis, the separated proteins were transferred to PVDF membrane by wet transfer. The immunoblots were then blocked for 1 hour in 5% skim milk in TBST or 5% BSA in TBST, according to manufacturer's instructions, before an overnight incubation at 4° C. with indicated antibodies and membranes. Membranes were then incubated with the appropriate horseradish peroxidase-conjugated secondary antibodies (1:5,000 dilution) for 1 h at room temperature and the bands were visualized using the Clarity Max Western ECL Substrate (Biorad) and the ChemiDoc Imaging System (Biorad). Signal was detected with ECL Western Blotting Substrate (Pierce) and X-ray film processed with a Konica SRX-101 X-ray film processor or captured by Bio-Rad's Chemidoc Imaging system.
WES Simple analysis was performed on WES system (ProteinSimple-Biotechne) according to the manufacturer's instructions. Total protein concentrations of cell lysates were determined by the Pierce BCA kit (Thermo Fisher). 3 μL of 0.3 μg/uL of the protein lysate was loaded onto a 12- to 230-kDa WES assay plate (ProteinSimple) where 300 nL sample was withdrawn through a capillary, subjected to electrophoretic separation of proteins by size, and followed by the simultaneous, HRP-based detection of proteins using the Anti-Rabbit Detection Module (Proteinsimple: #DM-001). The electropherograms were checked then the automatic peak detection was manually corrected if it was required.
A black check mark indicates efficacy of 30% to 70% or higher protein degradation.

[1] = 72 h, 10 nM-100 μM, cotreated 1:1 with each of CRBN ligands 8066, 8046 and 8047, compared to monomers alone

Row | Compound | toxicity / loss of cellular viability (CellTiter-Glo) (MV-4-11 cells; [1]) | Degradation of BRD4, combination with CRBN ligand [drawing 422] (BRD4; Table 1) | Degradation of BRD4, combination with CRBN ligand [drawing 397] (BRD4; Table 1) | also measured
1 | CCNC(=O)C[C@@H]1N=C(c2ccc(Cl)cc2)c2cc(OCCCCC(=O)Nc3cccc(B(O)O)c3)ccc2-n2c(C)nnc21 [BRD-E20, (3-(5-(((4S)-6-(4-chlorophenyl)-4-(2-(ethylamino)-2-oxoethyl)-1-methyl-4H-benzo[f][1,2,4]triazolo[4,3-a][1,4]diazepin-8-yl)oxy)pentanamido)phenyl)boronic acid] | reduced viability; also recorded: increased toxicity | ✓ (A black check mark indicates efficacy of 30% to 70% or higher protein degradation) | ✓ (A black check mark indicates efficacy of 30% to 70% or higher protein degradation) | Degradation of BRD4, combination with MDM2 ligand [drawing 430] (BRD4; Table 2, aromatic 1,2-diol-containing MDM2 ligand drawn as drawing 430 (by the text apparently 8313)): ✓ (A black check mark indicates efficacy of 30% to 70% or higher protein degradation); Degradation of BRD4, combination with MDM2 ligand [drawing 431] (BRD4; Table 2): ✓ (A black check mark indicates efficacy of 30% to 70% or higher protein degradation); Degradation of BRD4, combination with VHL ligand [drawing 442] (BRD4): ✓ (A black check mark indicates efficacy of 30% to 70% or higher protein degradation)
2 | COc1ccc2c(c1)C(c1ccc(Cl)cc1)=N[C@@H](CC(=O)NCCNC(=O)/C=C/c1ccc(B(O)O)cc1)c1nnc(C)n1-2 [BRD-E29, (4-((E)-3-((2-(2-((4S)-6-(4-chlorophenyl)-8-methoxy-1-methyl-4H-benzo[f][1,2,4]triazolo[4,3-a][1,4]diazepin-4-yl)acetamido)ethyl)amino)-3-oxoprop-1-en-1-yl)phenyl)boronic acid] | reduced viability; also recorded: increased toxicity | ✓ (A black check mark indicates efficacy of 30% to 70% or higher protein degradation) | ✓ (A black check mark indicates efficacy of 30% to 70% or higher protein degradation) | Degradation of BRD4, combination with CRBN ligand [drawing 421] (BRD4; Table 1, CRBN ligand drawn as drawing 421 (by the text apparently 8047)): ✓ (A black check mark indicates efficacy of 30% to 70% or higher protein degradation)
3 | COc1ccc2c(c1)C(c1ccc(Cl)cc1)=N[C@@H](CC(=O)NCCOCCOCCNC(=O)c1cccc(B(O)O)c1)c1nnc(C)n1-2 [BRD-E46] | reduced viability; also recorded: increased toxicity | ✓ (A black check mark indicates efficacy of 30% to 70% or higher protein degradation) | ✓ (A black check mark indicates efficacy of 30% to 70% or higher protein degradation) | –
4 | CCNC(=O)C[C@@H]1N=C(c2ccc(Cl)cc2)c2cc(Sc3ccc(B(O)O)cc3)ccc2-n2c(C)nnc21 [BRD-E75, (4-(((4S)-6-(4-chlorophenyl)-4-(2-(ethylamino)-2-oxoethyl)-1-methyl-4H-benzo[f][1,2,4]triazolo[4,3-a][1,4]diazepin-8-yl)thio)phenyl)boronic acid] | reduced viability; also recorded: increased toxicity | – | – | Degradation of BRD4, combination with MDM2 ligand [drawing 431] (BRD4; Table 2): ✓ (A black check mark indicates efficacy of 30% to 70% or higher protein degradation)
5 | CCNC(=O)C[C@@H]1N=C(c2ccc(Cl)cc2)c2cc(Sc3cccc(B(O)O)c3)ccc2-n2c(C)nnc21 [BRD-E76] | reduced viability; also recorded: increased toxicity | – | ✓ (A black check mark indicates efficacy of 30% to 70% or higher protein degradation) | –
6 | CCNC(=O)C[C@@H]1N=C(c2ccc(Cl)cc2)c2cc(OCCCCCCCNC(=O)c3ccc(B(O)O)cc3)ccc2-n2c(C)nnc21 [BRD-E78] | reduced viability; also recorded: increased toxicity | – | – | Degradation of BRD4, combination with VHL ligand [drawing 442] (BRD4): ✓ (A black check mark indicates efficacy of 30% to 70% or higher protein degradation)
7 | COc1ccc2c(c1)C(c1ccc(Cl)cc1)=N[C@@H](CC(=O)NCCc1ccc(O)c(O)c1)c1nnc(C)n1-2 [BRD-N10, (S)-2-(6-(4-chlorophenyl)-8-methoxy-1-methyl-4H-benzo[f][1,2,4]triazolo[4,3-a][1,4]diazepin-4-yl)-N-(3,4-dihydroxyphenethyl)acetamide] | – | – | – | toxicity / loss of cellular viability (CellTiter-Glo) (MV-4-11 cells; 1 nM-100 μM, cotreated 1:1 with CRBN ligand 8049): a concentration-dependent loss in cellular viability was observed; also recorded: increased toxicity; Degradation of BRD4, combination with CRBN ligand [drawing 457] (BRD4; Table 4, aryl-boronic acid-containing CRBN ligand drawn as drawing 457 (by the text apparently 8048)): ✓ (A black check mark indicates efficacy of 30% to 70% or higher protein degradation); Degradation of BRD4, combination with CRBN ligand [drawing 458] (BRD4; Table 4, aryl-boronic acid-containing CRBN ligand drawn as drawing 458 (by the text apparently 8049)): ✓ (A black check mark indicates efficacy of 30% to 70% or higher protein degradation); Degradation of BRD4, combination with MDM2 ligand [drawing 463] (BRD4; Table 5, aryl-boronic acid-containing MDM2 ligand drawn as drawing 463 (apparently 8310)): ✓ (A black check mark indicates efficacy of 30% to 70% or higher protein degradation)

From patent publication US20240000950A1, “THERAPEUTIC CURE-PRO COMPOUNDS FOR TARGETED DEGRADATION OF BET DOMAIN PROTEINS, AND METHODS OF MAKING AND USING THEM” (CORNELL UNIVERSITY, priority 2020, published 2024)
